{"source": "paper PMC8271538", "about": "“Chemical Modulation of the 1-(Piperidin-4-yl)-1,3-dihydro-2H-benzo[d]imidazole-2-one Scaffold as a Novel NLRP3 Inhibitor” (Molecules, 2021)", "key": {"[1]": {"tested_on": "IL-1β release in differentiated THP-1 cells", "experiment": "IL-1β release (ELISA) in supernatants of LPS/ATP-treated differentiated THP-1 cells", "assay_type": "cell-based, human", "settings": "same experiments as pyroptosis, vs vehicle-treated cells, mean ± SEM; for IL-1β Inhibition, % inhibition at 10 µM: 10 µM test compound; for inhibition at 10 µM: Homo sapiens, THP-1, 10 µM test compound", "method": "Different techniques could be used to study NLRP3 inhibitors; the use of differentiated THP-1 cells treated with NLRP3 activating stimuli is suitable for the screening of large series of compounds [48]. All the synthesised compounds (Figure 2) were evaluated for their NLRP3 inhibitory activity by measuring their ability to prevent NLRP3-dependent pyroptosis in differentiated THP-1 cells. THP-1 cells were differentiated into macrophages by treatment with phorbol-myristate acetate (PMA; 50 nM; 24 h) and then treated with lipopolysaccharide (LPS; 10 µg/mL; 4 h) to promote NLRP3 expression. The cells were then incubated with test compounds at the fixed concentration of 10 µM for 1 h. Test compounds were dissolved in serum free medium containing 0.1% DMSO as the vehicle. NLRP3 was activated by the addition of ATP (5 mM), and the pyroptotic cell death was evaluated after 1.5 h by measuring the lactate dehydrogenase (LDH) released in the cell supernatants. The obtained results, expressed as pyroptosis% decrease with respect to vehicle-treated cells, are collected in Table 1. In the same experiments, the release of IL-1β was measured via an ELISA assay and the results, expressed as % inhibition of IL-1β release versus vehicle-treated cells, are reported in Table 1. Finally, the cytotoxicity of the synthesised compounds was evaluated by MTT assay after treatment of THP-1 cells with increasing concentration of test compounds (0.1–100 µM) for 72 h. […] The structural modulation of compound 2 was then carried out in order to understand whether it was possible to restore/increase the activity without the re-introduction of a Michael acceptor substructure.\nHuman myelomonocytic THP-1 cells were cultured in RPMI 1640 medium (Aurogene, Rome, Italy) supplemented with fetal bovine serum (10%; Aurogene), L-glutamine (2 mM; Aurogene), penicillin (100 IU/mL; Aurogene) and streptomycin ([…]; Aurogene). Cell culture medium was replaced every 2−3 days, and the cultures were maintained at 37 °C and 5% CO2 in a fully humidified incubator. The day before each experiment, cells were plated in 48-well culture plates (90.000 cells/well) and were differentiated by treatment with PMA (50 nM, 24 h; Sigma-Aldrich). PMA-differentiated THP-1 cells were washed twice with phosphate-buffered saline (PBS) and primed with LPS (10 μg/mL, 4 h; Sigma-Aldrich) in serum-free medium. Cells were then incubated with compounds dissolved in medium containing 0.1% DMSO for 1 h and cell death was triggered with ATP (5 mM, 90 min; Sigma-Aldrich). MCC950 (Sigma-Aldrich batch #45216 and batch #85021 and from Crysdot (product n. CD31002496; OS05876-18070932) was used in the experiments.\nIL-1β release was quantified in differentiated THP-1 supernatant, obtained as previously described, using Human IL-1 beta Uncoated ELISA kit (Invitrogen, Waltham, MA, USA), according to the manufacture’s instruction."}, "[2]": {"tested_on": "NLRP3-dependent pyroptosis in differentiated THP-1 cells", "experiment": "NLRP3-dependent pyroptosis (LDH release) in PMA-differentiated, LPS-primed, ATP-triggered THP-1 cells", "assay_type": "cell-based, human", "settings": "for inhibition at 10 µM: THP-1, 1.5 h, read-out: Pyroptosis Decrease, % inhibition at 10 µM"}, "human recombinant NLRP3": {"molecular_target": "T1, human recombinant NLRP3 (Homo sapiens, UniProt Q96P20)", "T1 construct": "made in house; host or cells: HEK293T cells (transient transfection, captured from lysate on GFP-Trap Sepharose)", "T1 sequence (Q96P20 whole entry)": "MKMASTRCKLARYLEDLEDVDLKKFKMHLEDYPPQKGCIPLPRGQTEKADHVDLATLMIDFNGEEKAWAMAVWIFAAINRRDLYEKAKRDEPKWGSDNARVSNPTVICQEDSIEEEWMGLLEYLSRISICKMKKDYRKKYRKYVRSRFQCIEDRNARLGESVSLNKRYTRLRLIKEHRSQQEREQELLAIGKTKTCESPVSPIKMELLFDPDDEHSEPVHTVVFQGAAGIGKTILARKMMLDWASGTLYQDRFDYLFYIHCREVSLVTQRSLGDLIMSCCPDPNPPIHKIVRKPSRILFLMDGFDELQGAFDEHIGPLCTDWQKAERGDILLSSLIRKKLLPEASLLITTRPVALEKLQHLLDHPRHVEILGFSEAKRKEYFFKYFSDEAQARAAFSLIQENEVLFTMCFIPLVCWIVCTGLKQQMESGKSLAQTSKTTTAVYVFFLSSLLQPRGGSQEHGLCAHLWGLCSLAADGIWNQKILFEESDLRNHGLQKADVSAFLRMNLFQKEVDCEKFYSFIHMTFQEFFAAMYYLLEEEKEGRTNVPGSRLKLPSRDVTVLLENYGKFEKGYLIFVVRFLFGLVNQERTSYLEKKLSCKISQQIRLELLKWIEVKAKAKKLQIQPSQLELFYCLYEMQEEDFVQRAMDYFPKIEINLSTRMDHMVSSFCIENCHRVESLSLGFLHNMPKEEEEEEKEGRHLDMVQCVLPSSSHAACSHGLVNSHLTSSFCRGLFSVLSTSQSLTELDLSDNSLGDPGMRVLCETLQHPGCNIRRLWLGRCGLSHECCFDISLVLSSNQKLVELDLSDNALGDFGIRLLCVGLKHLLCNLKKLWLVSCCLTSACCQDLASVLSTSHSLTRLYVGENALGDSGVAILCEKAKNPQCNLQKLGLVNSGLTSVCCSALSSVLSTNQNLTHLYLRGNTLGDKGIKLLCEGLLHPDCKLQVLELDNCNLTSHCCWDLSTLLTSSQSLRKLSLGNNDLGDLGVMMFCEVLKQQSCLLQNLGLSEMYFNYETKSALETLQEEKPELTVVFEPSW", "experiment": "In vitro NLRP3 ATPase activity, on-bead ADP-Glo assay with immobilised NLRP3-GFP", "assay_type": "biochemical", "settings": "for inhibition at 100 µM / Inhibition of NLRP3 ATPase activity (% reduction in ATP hydrolysis relative to vehicle control): 100 μM compound, ATP 800 μM, mean ± SEM, n = 4; for inhibition at 100 µM: read-out: Inhibition of NLRP3 ATPase activity (% reduction in ATP hydrolysis relative to vehicle control)"}, "THP-1 cells": {"tested_on": "THP-1 cells", "settings": "72 h treatment, 0.1–100 µM, MTT; TC50 ± SEM of three experiments"}, "[3]": {"tested_on": "isolated recombinant NLRP3", "set-up": "method as in PMID 28410442", "settings": "cited from earlier work"}, "DNBS-induced colitis": {"tested_on": "DNBS-induced colitis", "set-up": "method as in PMID 28410442, PMID 30559669", "settings": "oral administration in mice at both 50 and 25 mg/kg; cited from earlier work"}, "[4]": {"settings": "Homo sapiens, 10 µM test compound, 1 h before ATP (5 mM, 90 min), vs vehicle-treated cells, mean ± SEM, NA = not active at 10 µM"}}, "note": "Where “and” joins values, the source holds several entries; their conditions need not be identical. Equal entries are not always repeated.", "data": [{"smiles": "C=C(Cc1ccccc1Cl)C(=O)N1CCC(n2c(=O)[nH]c3ccccc32)CC1", "note": "[Compound 1, 1-(1-(2-(2-chlorobenzyl)acryloyl)piperidin-4-yl)-1,3-dihydro-2H-benzo[d]imidazol-2-one]", "values": [{"measurement": "IL-1β Inhibition, % inhibition at 10 µM", "setting": "[1]", "value": "14.4 ± 5.0", "unit": "%"}, {"measurement": "inhibition at 10 µM", "setting": "[1]", "value": "19.4 ± 0.4", "unit": "%"}, {"measurement": "inhibition at 10 µM", "setting": "[2]; [4]", "value": "24.9 ± 6.3", "unit": "%"}, {"measurement": "inhibition at 100 µM", "setting": "human recombinant NLRP3", "value": "28.4 ± 2.6", "unit": "%"}, {"measurement": "Cytotoxicity TC50", "setting": "THP-1 cells", "value": "32.9 ± 19 µM and 32.9 ± 19.0 µM"}]}, {"smiles": "O=C(CCc1ccccc1Cl)n1c(=O)n(Cc2nn[nH]n2)c2ccccc21", "note": "[Compound 19, 1-((2H-tetrazol-5-yl)methyl)-3-(3-(2-chlorophenyl)propanoyl)-1,3-dihydro-2H-benzo[d]imidazol-2-one]", "values": [{"measurement": "inhibition at 10 µM", "setting": "[1]", "value": "< 10", "unit": "%"}, {"measurement": "inhibition at 10 µM", "setting": "[2]; [4]", "value": "26.2 ± 1.6", "unit": "%"}, {"measurement": "Inhibition of NLRP3 ATPase activity (% reduction in ATP hydrolysis relative to vehicle control)", "setting": "human recombinant NLRP3", "value": "reduced the inhibitory potential"}, {"measurement": "Cytotoxicity TC50", "setting": "THP-1 cells", "value": ">100", "unit": "µM"}]}, {"smiles": "N#CN=C(NCc1ccccc1)NC1CCN(C(=O)CCc2ccccc2Cl)CC1", "note": "[Compound 13, 1-benzyl-3-(1-(3-(2-chlorophenyl)propanoyl)piperidin-4-yl)-2-cyanoguanidine]", "values": [{"measurement": "IL-1β Inhibition, % inhibition at 10 µM", "setting": "[1]", "value": "able to inhibit"}, {"measurement": "inhibition at 10 µM", "setting": "[1]", "value": "25.2 ± 4.9", "unit": "%"}, {"measurement": "Pyroptosis Decrease, % inhibition at 10 µM", "setting": "[2]; 10 µM test compound, 1 h before ATP (5 mM, 90 min), vs vehicle-treated cells, mean ± SEM, NA = not active at 10 µM", "value": "able to inhibit"}, {"measurement": "inhibition at 1 µM", "setting": "[2]; Homo sapiens, THP-1, 1 µM test compound (Figure 3)", "value": "20 to 30", "unit": "%"}, {"measurement": "inhibition at 10 µM", "setting": "[2]; [4]", "value": "45 ± 8.8", "unit": "%"}, {"measurement": "Inhibition of NLRP3 ATPase activity (% reduction in ATP hydrolysis relative to vehicle control)", "setting": "human recombinant NLRP3", "value": "significant inhibition of ATPase activity"}, {"measurement": "inhibition at 100 µM", "setting": "human recombinant NLRP3", "value": "26.5 ± 3.1", "unit": "%"}, {"measurement": "NLRP3 ATPase inhibition at 1 mM compared with 100 µM", "setting": "human recombinant NLRP3; 1 mM vs 100 µM compound, data not shown", "value": "no significant differences"}, {"measurement": "Cytotoxicity TC50", "setting": "THP-1 cells", "value": "85.7 ± 5.6", "unit": "µM"}]}, {"smiles": "C=C(Cc1ccccc1Cl)C(=O)OCC", "note": "[INF39]", "values": [{"measurement": "Inhibition of ATP hydrolysis by NLRP3", "setting": "[3]", "value": "inhibited ATP hydrolysis"}, {"measurement": "Prevention of DNBS-induced colitis", "setting": "DNBS-induced colitis", "value": "able to prevent DNBS-induced colitis"}]}]}
